Data as given in patent publication US12528774B2, “Thiosemicarbazone compounds and uses thereof” (The Regents of the University of California, priority 2019, dated 2026).

What was measured:
[1] = system: normal human epithelial cell line HPDE; experiment: Proliferation assay in normal epithelial cell line HPDE; assay type: cell-based
Protocol: Serum copper levels are elevated (>20 μM) in individuals with solid tumor types such as pancreatic ductal adenocarcinoma (PDAC), small cell lung carcinoma (SCLC), and prostate cancer (PC). (Refs. 43-48). These cancers rely upon elevated copper levels to sustain growth, making this transition metal a viable target for therapeutic modulation. (Ref 34).
Proliferation assay: Cells were plated in 384-well plates (500 cells/well for adherent cell lines in 30 μl volume). Drugs were serially diluted to the desired concentrations and an equivalent volume of DMSO was added to vehicle control. Following 72 h incubation, ATP content was measured using CellTiter-Glo reagent according to manufacturer's instructions (Promega, CellTiter-Glo Luminescent Cell Viability Assay), and analyzed by SpectraMax luminometer (Molecular Devices). IC50 and IC90 values, concentrations required to inhibit proliferation by 50% and 90% respectively compared to DMSO treated cells, were calculated using Prism 6.0 h (Graphpad Software).

[2] = biological target: dihydroorotate dehydrogenase (DHODH) (Homo sapiens, UniProt Q02127); experiment: Recombinant DHODH activity assay; assay type: biochemical; settings: HCT-13 100 nM, 1 μM; Cu(II) 20 μM
Sequence of dihydroorotate dehydrogenase (DHODH) (Q02127 whole entry, species assumed): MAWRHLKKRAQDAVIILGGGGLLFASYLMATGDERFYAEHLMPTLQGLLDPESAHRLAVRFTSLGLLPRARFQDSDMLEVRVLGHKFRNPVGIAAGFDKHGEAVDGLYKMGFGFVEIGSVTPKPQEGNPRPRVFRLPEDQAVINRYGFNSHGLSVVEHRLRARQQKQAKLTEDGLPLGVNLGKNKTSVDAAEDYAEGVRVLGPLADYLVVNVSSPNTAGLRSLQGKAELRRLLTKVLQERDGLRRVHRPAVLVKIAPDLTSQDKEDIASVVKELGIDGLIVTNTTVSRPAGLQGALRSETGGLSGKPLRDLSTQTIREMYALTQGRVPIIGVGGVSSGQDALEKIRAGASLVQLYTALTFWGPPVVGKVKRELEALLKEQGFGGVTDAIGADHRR
Protocol: FIG. 5A: rescue of HCT-13 (25 nM)-induced cell death by Uridine (rU) (200 μM), Pyruvate (1 mM), or both following 48h of treatment. FIG. 5B: measurement of DHODH activity using recombinant DHODH assay following treatment with indicated perturbations for 2 min. DHODH inhibitor used: NITD-982-1 μM; HCT-13-100 nM, 1 μM, (100 nM data shown); Cu(II)—20 μM. (mean±SD, n=2, Student t-test, * P<0.05).
DHODH activity: Recombinant protein was incubated in an aqueous solution (total volume, 1.0 mL) containing 500 μM DHO (Sigma, D1728), 200 mM K2CO3-HCl (pH 8.0), 0.2% triton x-100, and 100 μM coenzyme Q10 (Sigma, C9538) at 37° C. for 0, 15, 30, 45, or 60 min. An aliquot (100 μL) of the mixture of enzyme reaction mixture or cell/tissue lysate was mixed with 100 μL of 0, 0.5, or 1.0 μM orotic acid, 50 μL of H2O, 250 μL of 4.0 mM 4-TFMBAO (Sigma, 422231), 250 μL of 8.0 mM K3[Fe(CN)6] (Sigma, 244023), and 250 μL of 80 mM K2CO3 (Sigma, P5833) and then heated at 80° C. for 4.0 min. The reaction was stopped by cooling in an ice-water bath and the absorbance was measured with a spectrofluorometer (FP-6300 Jasco, Tokyo, Japan): excitation and emission wavelengths were 340 nm and 460 nm, respectively.

MIAPACA-2 cells = experiment: Nucleotide pool measurement by LC-MS/MS-MRM; assay type: cell-based, human; settings: 25 nM HCT-13 + Cu(II), 48 hours
Protocol: FIGS. 4A-4G show the chemical genomics screen identifying the replication stress response pathway as an actionable co-dependency of HCT13-treated cells. FIG. 4A: experimental design of a synthetic lethality screen using a library of protein kinase inhibitors against HCT13-treated cells in the presence of Cu(II) (20 μM). FIG. 4B: radar plot of screen results. FIG. 4C: z-score values for kinase inhibitors within the DNA damage response/replication stress response (DDR/RSR) pathway module. FIG. 4D: representative immunoblot of replication stress and cell death biomarkers in MIAPACA2 PDAC cells treated with HCT13 (10 nM)+Cu(II) (20 μM). […]
These observations are indicative of DDR/RSR pathway activation, which was hypothesized to arise from nucleotide insufficiency and/or, given the ability of copper to generate ROS, from ROS-mediated DNA damage. […] To test the former hypothesis, nucleotide levels were measured in treated and non-treated cells using liquid chromatography-tandem mass spectrometry with multiple reaction monitoring (LC-MS/MS-MRM) as previously described by Le et al, Nature Communications 2017, 8(1):1-14. […] These findings indicate that HCT-13 preferentially decreases the dGTP and rGTP pools, potentially via oxidative processes as guanine is the most readily oxidized nucleobase. […]

[3] = HCT-13 stock solution (solubilization); assay type: physicochemical; settings: aqueous with cosolvent or surfactant or cyclodextrin; aqueous 40% captisol with 1% DMSO, heating 50° C., sonication 15 minutes; read-out: concentration solubilized
Protocol: HCT-13 stock solution. HCT-13 was solubilized up to a concentration of 20 mg/mL in an aqueous solution of 40% captisol with 1% DMSO with the aid of heating at 50° C. and sonication for 15 minutes.

Q: With CN(C)C(=S)N/N=C/c1nccc2cc(F)ccc12 (mixture of isomers) [HCT13, (E)-2-((6-Fluoroisoquinolin-1-yl)methylene)-N,N-dimethylhydrazine-1-carbothioamide and (Z)-2-((6-Fluoroisoquinolin-1-yl)methylene)-N,N-dimethylhydrazine-1-carbothioamide] as the molecule, how does the “sensitivity of normal cells versus cancer models” value [1] read?
A: Its value is “markedly more resistant”.

Q: What about the “affinity for DHODH” value [2] of the same molecule?
A: Its value is “did not demonstrate affinity”.

Q: What about the “dGTP and rGTP pools” value (MIAPACA-2 cells) of the same molecule?
A: Its value is “decreased”.

Q: And the solubility at 15 min [3]?
A: Its solubility at 15 min is no more than 20 mg/mL.
